According to the Kinase Knowledgebase extract (Sharma et al. 2016):

Molecular target: ROCK2 (human) (UniProt O75116)
Assay: Assessment of ROCK2 Kinase Activity

Sequence of ROCK2 (human) (O75116 whole entry, looked up): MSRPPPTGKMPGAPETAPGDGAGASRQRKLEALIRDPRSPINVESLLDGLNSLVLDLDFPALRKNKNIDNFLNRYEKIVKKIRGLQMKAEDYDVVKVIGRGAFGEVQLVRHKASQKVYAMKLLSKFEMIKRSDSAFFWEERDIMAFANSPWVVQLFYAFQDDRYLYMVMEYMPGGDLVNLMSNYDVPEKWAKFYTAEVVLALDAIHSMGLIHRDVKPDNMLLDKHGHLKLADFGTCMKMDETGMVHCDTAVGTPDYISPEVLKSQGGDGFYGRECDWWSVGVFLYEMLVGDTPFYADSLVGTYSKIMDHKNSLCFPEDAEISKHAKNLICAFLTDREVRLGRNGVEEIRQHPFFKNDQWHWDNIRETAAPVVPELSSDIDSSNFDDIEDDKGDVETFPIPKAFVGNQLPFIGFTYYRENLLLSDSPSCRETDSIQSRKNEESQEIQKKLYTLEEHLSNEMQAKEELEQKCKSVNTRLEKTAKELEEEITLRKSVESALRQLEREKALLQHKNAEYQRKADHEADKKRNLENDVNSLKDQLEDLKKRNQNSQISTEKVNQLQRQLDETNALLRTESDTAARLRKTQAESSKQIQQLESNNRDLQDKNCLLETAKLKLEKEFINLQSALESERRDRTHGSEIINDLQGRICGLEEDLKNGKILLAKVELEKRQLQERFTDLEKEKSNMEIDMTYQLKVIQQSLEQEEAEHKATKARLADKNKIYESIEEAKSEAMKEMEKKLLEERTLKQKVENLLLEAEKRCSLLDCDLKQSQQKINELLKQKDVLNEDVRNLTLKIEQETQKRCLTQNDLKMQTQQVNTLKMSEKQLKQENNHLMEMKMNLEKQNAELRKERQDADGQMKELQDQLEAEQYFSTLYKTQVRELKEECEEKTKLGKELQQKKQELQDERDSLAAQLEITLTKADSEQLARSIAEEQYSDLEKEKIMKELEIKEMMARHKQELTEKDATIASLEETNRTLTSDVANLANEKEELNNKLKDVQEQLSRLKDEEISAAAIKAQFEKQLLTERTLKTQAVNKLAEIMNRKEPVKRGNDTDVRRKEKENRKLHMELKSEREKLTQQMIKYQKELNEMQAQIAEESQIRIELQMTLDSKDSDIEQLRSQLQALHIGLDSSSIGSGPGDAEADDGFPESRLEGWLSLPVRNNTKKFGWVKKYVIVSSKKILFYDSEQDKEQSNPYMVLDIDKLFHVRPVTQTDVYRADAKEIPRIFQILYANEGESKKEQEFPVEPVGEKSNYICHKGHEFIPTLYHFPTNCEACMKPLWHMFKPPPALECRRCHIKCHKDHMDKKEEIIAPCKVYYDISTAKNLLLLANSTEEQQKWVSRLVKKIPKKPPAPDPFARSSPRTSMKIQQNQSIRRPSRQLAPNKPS

Structure (SMILES) | IC50 [nM]
N[C@H]1CC[C@H](Oc2cc3cc[nH]c(=O)c3cc2Cl)C1 | ≤ 1000
N[C@H]1C[C@H](COc2cc3cc[nH]c(=O)c3cc2Cl)C1 | ≤ 1000
NC1CC(Oc2cc3cc[nH]c(=O)c3cc2Cl)C1 (centres undefined) | ≤ 1000
O=C(CCC1CCNCC1)N[C@H]1CC[C@@H](Oc2cc3cc[nH]c(=O)c3cc2Cl)CC1 | ≤ 1000
O=C(CC1CCNCC1)N[C@H]1CC[C@@H](Oc2cc3cc[nH]c(=O)c3cc2Cl)CC1 | ≤ 1000
CCC[C@]1(N)CCC[C@H](Oc2cc3cc[nH]c(=O)c3cc2Cl)CCC1 | ≤ 1000
O=C(O)CN[C@H]1CC[C@@H](Oc2cc3cc[nH]c(=O)c3cc2Cl)CC1 | ≤ 1000
NC(=O)C1CCN(C2CCC(Oc3cc4cc[nH]c(=O)c4cc3Cl)CC2)CC1 (centres undefined) | ≤ 1000
CCC[C@]1(N)CCC[C@@H](Oc2cc3cc[nH]c(=O)c3cc2Cl)CCC1 | ≤ 1000
Cc1cc2c(=O)[nH]ccc2cc1O[C@@H]1CCC[C@H](N)CC1 | ≤ 1000
N[C@H]1CCC[C@@H](Oc2cc3cc[nH]c(=O)c3cc2Cl)CC1 | ≤ 1000
N[C@@H]1CC[C@H](Oc2ccc3c(=O)[nH]ccc3c2)C1 | ≤ 1000

The remaining lines, values ahead:

IC50 [nM] | Structure (SMILES)
≤ 1000 | O=c1[nH]ccc2cc(O[C@H]3CC[C@@H](N4CCOCC4)CC3)c(Cl)cc12
≤ 1000 | O=c1[nH]ccc2cc(O[C@H]3CC[C@@H](N4CCCC4)CC3)c(Cl)cc12
≤ 1000 | CN1CCN([C@H]2CC[C@H](Oc3cc4cc[nH]c(=O)c4cc3Cl)CC2)CC1
≤ 1000 | CN1CCN([C@H]2CC[C@@H](Oc3cc4cc[nH]c(=O)c4cc3Cl)CC2)CC1
≤ 1000 | O=c1[nH]ccc2cc(OC3CCC(N4CCCCC4)CC3)c(Cl)cc12 (centres undefined)
≤ 1000 | O=c1[nH]ccc2cc(O[C@H]3CC[C@H](N4CCCC4)CC3)c(Cl)cc12
≤ 1000 | O=c1[nH]ccc2cc(O[C@H]3CC[C@H](N4CCOCC4)CC3)c(Cl)cc12
